Literature values as cited in patent publication US20060057204A1, “Pharmaceutical compositions containing venlafaxine” (priority 2002, published 2006).
Structures can show the parent of a compound that is named as a salt.

Details: plural daily dosing regimen

**Q.** Which “nausea, patients under treatment” value does the source give for `COc1ccc(C(CN(C)C)C2(O)CCCCC2)cc1` (centres unmarked) [venlafaxine hydrochloride, 1-[(2-dimethylamino)-1-(4-methoxyphenyl)ethyl] cyclohexanol] here?
**A.** The value was “about forty five percent”.

**Q.** And the “vomiting, patients” value?
**A.** The value was “about seventeen percent”.
